According to US20200101042A1, “4-METHYLUMBELLIFERONE TREATMENT FOR IMMUNE MODULATION” (Benaroya Research Institute at Virginia Mason, priority 2013, published 2020):

Key:
[1] = system: DORmO mice; assay: Blood glucose in DORmO double transgenic mouse model of autoimmune diabetes, 4-MU in chow; type: in vivo
From the text: To determine that HA accumulates in the pancreatic islets and creates a permissive environment for autoimmune attacks during autoimmune diabetes disease progression, the DORmO double transgenic mouse model of autoimmune diabetes was used. DORmO mice predictably develop autoimmune diabetes because they are bred to have both a target antigen on their insulin producing beta-cells as well as an immune system that specifically recognizes that antigen. DORmO mice are the result of a cross between RIPmOVA mice (a strain that carries a gene specific for hen egg ovalbumin (OVA) that is only expressed on beta-cells, emulating the auto-antigen) and DO11.10 mice (a strain that carries a T-cell receptor transgene specific for OVA, emulating auto-reactive CD4+ T cells). […] A group of control mice was treated with 4-MU as well in order to see if 4-MU alters the blood glucose levels of those mice. […] The DORmO mice on control chow had to be sacrificed after getting diabetic according to the animal protocol. Another treatment group was established where the 4-MU treatment started at 12 weeks of age when the DORmO mice were already diabetic. […] The animals stained for HA were also stained for insulin. […] The pictures in the upper row show representative images of insulin staining in pancreatic islets in control animals treated with normal chow, (left column) or treated with 4-MU (right column).

[2] = system: HA accumulation in the pancreatic islets; assay: Immuno-staining for HA in pancreatic islets after 4-MU treatment; type: in vivo, mouse; conditions: DORmO mice, 8 week start treatment group, versus DORmO mice on control chow
From the text: HA accumulation in the pancreatic islets was investigated through immuno-staining after 4-MU treatment in a few mice of the 8 week start treatment group. […] The pictures in the upper row show representative images of a HA staining in pancreatic islets in control animals treated with normal chow, left column, or treated with 4-MU, right column.

[3] = system: insulin in pancreatic islets; assay: Immuno-staining for insulin in pancreatic islets after 4-MU treatment; type: in vivo, mouse; conditions: DORmO mice treated with 4-MU, 8 week start treatment group
From the text: The animals stained for HA were also stained for insulin. […] The pictures in the upper row show representative images of insulin staining in pancreatic islets in control animals treated with normal chow, (left column) or treated with 4-MU (right column).

[4] = system: MOG35-55 peptide-induced EAE in C57B1/6 mice; assay: MOG35-55 peptide-induced EAE mouse model of MS, EAE incidence and score; type: in vivo; conditions: for incidence of EAE: control 9/10
From the text: FIGS. 12A, 12B, and 12C graphically illustrate the mean EAE score as a function of days post induction in subjects treated with 4-MU according to a pretreatment, treatment, or intervention protocol, respectively.
For FIGS. 12A, 12B, and 12C, *P<0.05, ** P<0.01, ***P<0.001, Mann-Whitney.

[5] = system: cells infiltrating into the spinal cord; assay: Immunologic profile of cells infiltrating the spinal cord at peak of EAE; type: in vivo, mouse; conditions: for CD4+ T-cell infiltration into the spinal cord: EAE day 22 after immunization
Experimental: The effect of 4-MU treatment on EAE pathogenesis was analyzed by evaluating the immunologic profile of cells infiltrating into the spinal cord at the peak of disease (day 22 after immunization).
Further, considering the differential pathologic roles that Th1 and Th17 cells have in EAE (Axtell, R. C., et al., Clin. Rev. Allergy Immunol. 44, 114-120 (2013); Lowther, D. E., et al., Acta Neuropathol. 126, 501-515 (2013)), this change in the local Th cell profile can contribute to the prevention of the autoimmune attack on myelin.

[6] = system: CD4+ CD25+ cells; assay: CD25+ of CD4+ T-cells in spleen and lymph nodes of EAE mice; type: in vivo, mouse; conditions: EAE subjects, 4-MU started before immunization (pretreatment protocol)
[7] = system: FoxP3+ T-cells; assay: FoxP3+ T-cell numbers in lymphatic tissue after 4-MU treatment; type: in vivo, mouse
[8] = cited from earlier work
[9] = EAE mice after 4-MU treatment, FIG. 13B
[10] = EAE mice, 4-MU treatment, FIG. 13A

total lymphocyte counts in lymphatic organs (generalized immunosuppression) ([5]; EAE mice on 4-MU): unchanged
SMILES: Cc1cc(=O)oc2cc(O)ccc12 [4-MU, 4-methylumbelliferone]
normo-glycemia ([1]; DORmO mice, 4-MU added to chow): restored normo-glycemia
blood glucose level / development of diabetes ([1]; DORmO mice, 4-MU in chow starting at 5 weeks of age): not to become diabetic
blood glucose level ([1]; DORmO mice, 4-MU treatment starting at 8 weeks of age, at 23 weeks of age): normal blood glucose level
blood glucose levels ([1]; already diabetic DORmO mice, 4-MU starting at 12 weeks of age, after 1 week of treatment): decrease of the blood glucose levels
HA accumulation in pancreatic islets (immuno-staining) [2]: significant decrease
insulin in the islets (immuno-staining) [3]: still had a significant amount of insulin in the islets
EAE disease severity (mean EAE score) ([4]; intervention protocol, 4-MU after the onset of neurological symptoms): significantly ameliorated disease as early as 3 days after start of treatment
incidence of EAE ([4]; pretreatment protocol, 4-MU 5% w/w in chow from 4 days before immunization): 1/7
incidence of EAE ([4]; treatment protocol, 4-MU 5% w/w in chow after immunization boost on day 2, before symptoms): 2/10
CD4+ T-cell infiltration into the spinal cord ([5]; intervention treatment): moderately reduced
CD4+ T-cell infiltration into the spinal cord ([5]; pretreatment and early treatment with 4-MU): substantially reduced
IFN-γ producing Th1 populations among CD4+ T-cells in the CNS [5, 9]: mainly reduced
IL-17 producing Th17 population among CD4+ T-cells in the CNS [5, 9]: less affected
infiltration of CD8+ and CD4+ lymphocytes and macrophages [5, 10]: reduced infiltration
total numbers of cell infiltrates in spinal cord [5, 10]: lower total numbers of cell infiltrates
number of CD4+ CD25+ cells in the spleen and lymph nodes [6]: increased number
FoxP3+ T-cells in spleen, MLN, ILN and PLN ([7]; D0.11 mice following OVA immunization, FIG. 13D): increase in FoxP3+ T-cells
general immunosuppression ([7]; D0.11 mice on 4-MU, data not shown): did not induce a general immunosuppression
numbers of FoxP3+ T-cells in lymphatic tissue ([7]; healthy mice, data not shown): significantly increased
toxicity ([8]; general statement): no known toxicity
safety profile in clinical use ([8]; human use in Europe and Asia (biliary spasm, gallstones)): excellent safety profile
